Biological target: T1, BRD4(BD1) (Homo sapiens, UniProt O60885)
T1 construct: purchased BPS Bioscience
Assay: In Vitro Bromodomain Inhibition Assay (AlphaLISA, H4-tetraacetyl peptide)
Type: binding
Details: His-tagged BRD4(BD1) 200 nM, biotinylated H4-tetraacetyl peptide 200 nM, room temperature
Method: To measure activity of bromodomain inhibitors, a His-epitope tagged BRD4 BD149-170 was purchased from BPS Bioscience. BRD4 binding and inhibition was assessed by monitoring the engagement of biotinylated H4-tetraacetyl peptide (H4K5/8/12/16; AnaSpec #64989-025) with the target using the AlphaLISA technology (Perkin-Elmer). Specifically, in a 384 well OptiPlate, BRD4(BD1) (200 nM final) was pre-incubated with either DMSO (final 1.0% DMSO) or a compound dilution series in DMSO. All reagents were diluted in assay buffer containing 50 mM HEPES (pH 7.4), 100 mM NaCl, 0.1% (w/v) BSA, and 0.05% (w/v) CHAPS. After a 30 minute incubation at room temperature, H4 peptide was added (200 nM final) and the reaction was incubated an additional 30 minutes at room temperature. Alpha. streptavidin donor beads and AlphaLISA nickel chelate acceptor beads were then added to a final concentration of 10 ug/mL each. After one hour, equilibration plates were read on an Envision instrument and IC50s calculated using a four parameter non-linear curve fit.

Compound | IC50
COc1cc2c(cc1-c1c(C)noc1C)ncc1oc(=O)n(Cc3c(C)cccc3F)c12 [Example 37, 7-(3,5-Dimethylisoxazol-4-yl)-1-[(2-fluoro-6-methyl-phenyl)methyl]-8-methoxy-oxazolo[5,4-c]quinolin-2-one] | < 1 µM
COc1cc2c(cc1-c1c(C)noc1C)nc(C)c1oc(=O)n([C@H](C)c3ccccc3)c12 [Example 36, 7-(3,5-Dimethylisoxazol-4-yl)-8-methoxy-4-methyl-1-[(1R)-1-phenylethyl]oxazolo[5,4-c]quinolin-2-one] | < 1 µM
COc1cc2c(cc1-c1c(C)noc1C)nc(CO)c1oc(=O)n([C@H](C)c3ccccc3)c12 [Example 35, 7-(3,5-Dimethylisoxazol-4-yl)-4-(hydroxymethyl)-8-methoxy-1-[(1R)-1-phenylethyl]oxazolo[5,4-c]quinolin-2-one] | < 1 µM
CCOC(=O)c1nc2cc(-c3c(C)noc3C)c(OC)cc2c2c1oc(=O)n2Cc1ccccc1 [Example 1, Ethyl 1-benzyl-7-(3,5-dimethylisoxazol-4-yl)-8-methoxy-2-oxo-oxazolo[5,4-c]quinoline-4-carboxylate] | < 1 µM
COc1cc2c(cc1-c1c(C)noc1C)ncc1oc(=O)n(Cc3ccccc3)c12 [Example 2, 1-Benzyl-7-(3,5-dimethylisoxazol-4-yl)-8-methoxy-oxazolo[5,4-c]quinolin-2-one] | < 1 µM
CC[C@H](c1ccccc1)n1c(=O)oc2cnc3cc(-c4c(C)noc4C)c(OC)cc3c21 [Example 39, 7-(3,5-Dimethylisoxazol-4-yl)-8-methoxy-1-[(1R)-1-phenylpropyl]oxazolo[5,4-c]quinolin-2-one] | < 1 µM
COCc1nc2cc(-c3c(C)noc3C)c(OC)cc2c2c1oc(=O)n2[C@H](C)c1ccccc1 [Example 38, 7-(3,5-Dimethylisoxazol-4-yl)-8-methoxy-4-(methoxymethyl)-1-[(1R)-1-phenylethyl]oxazolo[5,4-c]quinolin-2-one] | < 1 µM
COc1cc2c(cc1-c1c(C)noc1C)ncc1oc(=O)n([C@H](C)c3ccccn3)c12 [Example 3, 7-(3,5-Dimethylisoxazol-4-yl)-8-methoxy-1-[(1R)-1-(2-pyridyl)ethyl]oxazolo[5,4-c]quinolin-2-one] | < 1 µM
COc1cc2c(cc1-c1c(C)noc1C)nc(CO)c1oc(=O)n(Cc3ccccc3)c12 [Example 33, 1-Benzyl-7-(3,5-dimethylisoxazol-4-yl)-4-(hydroxymethyl)-8-methoxy-oxazolo[5,4-c]quinolin-2-one] | < 1 µM
COc1cc2c(cc1-c1c(C)noc1C)ncc1oc(=O)n([C@H](C)c3ccc(Cl)cc3)c12 [Example 40, 1-[(1R)-1-(4-Chlorophenyl)ethyl]-7-(3,5-dimethylisoxazol-4-yl)-8-methoxy-oxazolo[5,4-c]quinolin-2-one] | < 1 µM
COc1cc2c(cc1-c1c(C)noc1C)ncc1oc(=O)n(Cc3ccccc3Cl)c12 [Example 18, 1-[(2-Chlorophenyl)methyl]-7-(3,5-dimethylisoxazol-4-yl)-8-methoxy-oxazolo[5,4-c]quinolin-2-one] | < 1 µM
CCOC(=O)c1nc2cc(-c3c(C)noc3C)c(OC)cc2c2c1oc(=O)n2[C@H](C)c1ccccc1 [Example 34, Ethyl 7-(3,5-Dimethylisoxazol-4-yl)-8-methoxy-2-oxo-1-[(1R)-1-phenylethyl]oxazolo[5,4-c]quinoline-4-carboxylate] | < 1 µM
COc1cc2c(cc1-c1c(C)noc1C)ncc1oc(=O)n([C@H](C)c3ccccc3)c12 [Example 12A, 7-(3,5-Dimethylisoxazol-4-yl)-8-methoxy-1-[(1R)-1-phenylethyl]oxazolo[5,4-c]quinolin-2-one] | < 1 µM

Continued, values first:

IC50 | Compound
< 1 µM | COc1cc2c(cc1-c1c(C)noc1C)nc(CN(C)C)c1oc(=O)n([C@H](C)c3ccccc3)c12 [Example 42, 4-(Dimethylaminomethyl)-7-(3,5-dimethylisoxazol-4-yl)-8-methoxy-1-[(1R)-1-phenylethyl]oxazolo[5,4-c]quinolin-2-one]
< 1 µM | CCN(Cc1nc2cc(-c3c(C)noc3C)c(OC)cc2c2c1oc(=O)n2Cc1ccccc1)C(C)=O [Example 48, N-[[1-Benzyl-7-(3,5-dimethylisoxazol-4-yl)-8-methoxy-2-oxo-oxazolo[5,4-c]quinolin-4-yl]methyl]-N-ethyl-acetamide]
< 1 µM | COc1cc2c(cc1-c1c(C)noc1C)nc(CN1CCOCC1)c1oc(=O)n(Cc3ccccc3)c12 [Example 41, 1-Benzyl-7-(3,5-dimethylisoxazol-4-yl)-8-methoxy-4-(morpholinomethyl)oxazolo[5,4-c]quinolin-2-one]
< 1 µM | COc1cc2c(cc1-c1c(C)noc1C)ncc1oc(=O)n(Cc3ccccc3S(C)(=O)=O)c12 [Example 49, 7-(3,5-Dimethylisoxazol-4-yl)-8-methoxy-1-[(2-methylsulfonylphenyl)methyl]oxazolo[5,4-c]quinolin-2-one]
< 1 µM | COc1cc2c(cc1-c1c(C)noc1C)ncc1oc(=O)n([C@H](C)c3ccc(C#N)cc3)c12 [Example 43, 4-[(1R)-1-[7-(3,5-Dimethylisoxazol-4-yl)-8-methoxy-2-oxo-oxazolo[5,4-c]quinolin-1-yl]ethyl]benzonitrile]
< 1 µM | COc1cc2c(cc1-c1c(C)noc1C)ncc1oc(=O)n([C@H](C)c3cccc(Cl)c3)c12 [Example 45, 1-[(1R)-1-(3-Chlorophenyl)ethyl]-7-(3,5-dimethylisoxazol-4-yl)-8-methoxy-oxazolo[5,4-c]quinolin-2-one]
< 1 µM | COc1cc2c(cc1-c1c(C)noc1C)nc(C(=O)O)c1oc(=O)n([C@H](C)c3ccccc3)c12 [Example 51, 7-(3,5-Dimethylisoxazol-4-yl)-8-methoxy-2-oxo-1-[(1R)-1-phenylethyl]oxazolo[5,4-c]quinoline-4-carboxylic acid]
< 1 µM | COc1cc2c(cc1-c1c(C)noc1C)nc(CN(C)C)c1oc(=O)n(Cc3ccccc3)c12 [Example 47, 1-Benzyl-4-(dimethylaminomethyl)-7-(3,5-dimethylisoxazol-4-yl)-8-methoxy-oxazolo[5,4-c]quinolin-2-one]
< 1 µM | COc1cc2c(cc1-c1c(C)noc1C)ncc1oc(=O)n(Cc3ccccc3C#N)c12 [Example 50, 2-[[7-(3,5-Dimethylisoxazol-4-yl)-8-methoxy-2-oxo-oxazolo[5,4-c]quinolin-1-yl]methyl]benzonitrile]
< 1 µM | CCNCc1nc2cc(-c3c(C)noc3C)c(OC)cc2c2c1oc(=O)n2Cc1ccccc1 [Example 52, 1-Benzyl-7-(3,5-dimethylisoxazol-4-yl)-4-(ethylaminomethyl)-8-methoxy-oxazolo[5,4-c]quinolin-2-one]
< 1 µM | COc1cc2c(cc1-c1c(C)noc1C)ncc1oc(=O)n(Cc3ccc(C)cc3)c12 [Example 46, 7-(3,5-Dimethylisoxazol-4-yl)-8-methoxy-1-(p-tolylmethyl)oxazolo[5,4-c]quinolin-2-one]
< 1 µM | COc1cc2c(cc1-c1c(C)noc1C)ncc1oc(=O)n(Cc3ccc(OC(F)(F)F)cc3)c12 [Example 54, 7-(3,5-Dimethylisoxazol-4-yl)-8-methoxy-1-[[4-(trifluoromethoxy)phenyl]methyl]oxazolo[5,4-c]quinolin-2-one]
< 1 µM | COc1cc2c(cc1-c1c(C)noc1C)ncc1oc(=O)n([C@H](C)c3cccc(C#N)c3)c12 [Example 44, 3-[(1R)-1-[7-(3,5-Dimethylisoxazol-4-yl)-8-methoxy-2-oxo-oxazolo[5,4-c]quinolin-1-yl]ethyl]benzonitrile]

Reference: patent US20160039842A1, “OXAZOLO[5,4-C]QUINOLIN-2-ONE COMPOUNDS AS BROMODOMAIN INHIBITORS” (EPIGENETIX, INC., priority 2013, published 2016)
